US11690379B2, “Aqueous insecticidal composition and methods of use thereof” (priority 2020, dated 2023)

Columns and labels:
Format in all cases: in vivo
[1] = system: silverleaf whitefly (Bemisia tabaci); assay: Foliar spray bioefficacy, second assay (2 applications); settings: recorded 8 days after second application
Procedure: A bioefficacy assay utilizing a foliar spray containing Spirotetramat and pyriproxyfen was conducted on the silverleaf whitefly (Bemisia tabaci) on tomatoes and bell peppers. […] Control was recorded 7 days after first application, 7 days after second application and 8 days after third application. Application rates and results of this assay can be found in Table 8, below. […] Control was recorded 8 days after second application. Application rates and results of this assay can be found in Table 9, below.

[2] = system: Asian citrus psyllid (Diaphorina citri); assay: Foliar spray bioefficacy on Valencia oranges
Procedure: A bioefficacy assay utilizing a foliar spray containing Spirotetramat and pyriproxyfen was conducted on the Asian citrus psyllid (Diaphorina citri) on Valencia oranges. Spirotetramat and pyriproxyfen were applied concurrently and separately as a foliar spray. Application rates and results of this assay can be found in Table 12, below.

[3] = system: silverleaf whitefly (Bemisia tabaci); assay: Foliar spray bioefficacy, third assay (3 applications); settings: for # of Individuals per Leaf: Adults, 1st Appl. / # of Individuals per Leaf: Eggs, 1st Appl. / # of Individuals per Leaf: Nymphs, 1st Appl.: 7 days after first application; for # of Individuals per Leaf: Adults, 2nd Appl. / # of Individuals per Leaf: Eggs, 2nd Appl. / # of Individuals per Leaf: Nymphs, 2nd Appl.: 7 days after second application; for # of Individuals per Leaf: Adults, 3rd Appl. / # of Individuals per Leaf: Eggs, 3rd Appl. / # of Individuals per Leaf: Nymphs, 3rd Appl.: 8 days after third application
Procedure: A bioefficacy assay utilizing a foliar spray containing Spirotetramat and pyriproxyfen was conducted on the silverleaf whitefly (Bemisia tabaci) on tomatoes and bell peppers. […] Control was recorded 7 days after first application, 7 days after second application and 8 days after third application. Application rates and results of this assay can be found in Table 8, below. […] Control was recorded 7 days after first application, 7 days after second application and 8 days after third application. Application rates and results of this assay can be found in Table 10, below.

[4] = system: silverleaf whitefly (Bemisia tabaci); assay: Foliar spray bioefficacy, first assay (3 applications); settings: for # of Individuals per Leaf: Adults, 1st Appl. / # of Individuals per Leaf: Eggs, 1st Appl. / # of Individuals per Leaf: Nymphs, 1st Appl.: 7 days after first application; for # of Individuals per Leaf: Adults, 2nd Appl. / # of Individuals per Leaf: Eggs, 2nd Appl. / # of Individuals per Leaf: Nymphs, 2nd Appl.: 7 days after second application; for # of Individuals per Leaf: Adults, 3rd Appl. / # of Individuals per Leaf: Eggs, 3rd Appl. / # of Individuals per Leaf: Nymphs, 3rd Appl.: 8 days after third application
Procedure: A bioefficacy assay utilizing a foliar spray containing Spirotetramat and pyriproxyfen was conducted on the silverleaf whitefly (Bemisia tabaci) on tomatoes and bell peppers. […] Control was recorded 7 days after first application, 7 days after second application and 8 days after third application. Application rates and results of this assay can be found in Table 8, below.

[5] = system: vine mealybug (Pseudococcus maritimus); assay: Foliar spray bioefficacy on table grapes; settings: Spirotetramat 131 g/HA
Procedure: A bioefficacy assay utilizing a foliar spray containing Spirotetramat and pyriproxyfen was conducted on the vine mealybug (Pseudococcus maritimus) on table grapes. Spirotetramat and pyriproxyfen were applied concurrently as a foliar spray and spirotetramat was also applied individually. Application rates and results of this assay can be found in Table 11, below.

## CC(COc1ccc(Oc2ccccc2)cc1)Oc1ccccn1 (racemic) [Pyriproxyfen, 4-Phenoxyphenyl (R/S)-2-(2-pyridyloxy)propyl ether]
[1]; Pyriproxyfen 75.3 g/HA
  # of Individuals per Leaf: Adults, 1st Appl.: 1.6 per Leaf
  # of Individuals per Leaf: Eggs, 1st Appl.: 27.4 per Leaf
  # of Individuals per Leaf: Nymphs, 1st Appl.: 65.9 per Leaf
[2]; Pyriproxyfen 127.9 g/HA
  # of Nymphs: 14.1
[3]; Pyriproxyfen 75.3 g/HA
  # of Individuals per Leaf: Adults, 1st Appl.: 0.5 per Leaf
  # of Individuals per Leaf: Eggs, 1st Appl.: 0.5 per Leaf
  # of Individuals per Leaf: Nymphs, 1st Appl.: 0.5 per Leaf
  # of Individuals per Leaf: Adults, 2nd Appl.: 1.5 per Leaf
  # of Individuals per Leaf: Eggs, 2nd Appl.: 2.3 per Leaf
  # of Individuals per Leaf: Nymphs, 2nd Appl.: 0.8 per Leaf
  # of Individuals per Leaf: Adults, 3rd Appl.: 1.0 per Leaf
  # of Individuals per Leaf: Eggs, 3rd Appl.: 2.0 per Leaf
  # of Individuals per Leaf: Nymphs, 3rd Appl.: 0.8 per Leaf
[4]; Pyriproxyfen 75.3 g/HA
  # of Individuals per Leaf: Adults, 1st Appl.: 0.5 per Leaf
  # of Individuals per Leaf: Eggs, 1st Appl.: 0.5 per Leaf
  # of Individuals per Leaf: Nymphs, 1st Appl.: 0.5 per Leaf
  # of Individuals per Leaf: Adults, 2nd Appl.: 1.5 per Leaf
  # of Individuals per Leaf: Eggs, 2nd Appl.: 2.3 per Leaf
  # of Individuals per Leaf: Nymphs, 2nd Appl.: 0.8 per Leaf
  # of Individuals per Leaf: Adults, 3rd Appl.: 1.0 per Leaf
  # of Individuals per Leaf: Eggs, 3rd Appl.: 2.0 per Leaf
  # of Individuals per Leaf: Nymphs, 3rd Appl.: 0.8 per Leaf

## CCOC(=O)OC1=C(c2cc(C)ccc2C)C(=O)N[C@]12CC[C@@H](OC)CC2 [Spirotetramat, cis-3-(2,5-dimethylphenyl)-8-methoxy-2-oxo-1-azaspiro[4.5]dec-3-en-4-ylethyl carbonate]
[1]; Spirotetramat 87.6 g/HA
  # of Individuals per Leaf: Adults, 1st Appl.: 2.6 per Leaf
  # of Individuals per Leaf: Eggs, 1st Appl.: 12.7 per Leaf
  # of Individuals per Leaf: Nymphs, 1st Appl.: 33.2 per Leaf
[2]; Spirotetramat 163.7 g/HA
  # of Nymphs: 8.6
[5]
  % bunches infested: 6.8%
[3]; Spirotetramat 87.6 g/HA
  # of Individuals per Leaf: Adults, 1st Appl.: 3.3 per Leaf
  # of Individuals per Leaf: Eggs, 1st Appl.: 6.5 per Leaf
  # of Individuals per Leaf: Nymphs, 1st Appl.: 17.8 per Leaf
  # of Individuals per Leaf: Adults, 2nd Appl.: 2.0 per Leaf
  # of Individuals per Leaf: Eggs, 2nd Appl.: 13.8 per Leaf
  # of Individuals per Leaf: Nymphs, 2nd Appl.: 30.5 per Leaf
  # of Individuals per Leaf: Adults, 3rd Appl.: 2.0 per Leaf
  # of Individuals per Leaf: Eggs, 3rd Appl.: 11.0 per Leaf
  # of Individuals per Leaf: Nymphs, 3rd Appl.: 16.8 per Leaf
[4]; Spirotetramat 87.6 g/HA
  # of Individuals per Leaf: Adults, 1st Appl.: 3.3 per Leaf
  # of Individuals per Leaf: Eggs, 1st Appl.: 6.5 per Leaf
  # of Individuals per Leaf: Nymphs, 1st Appl.: 17.8 per Leaf
  # of Individuals per Leaf: Adults, 2nd Appl.: 2.0 per Leaf
  # of Individuals per Leaf: Eggs, 2nd Appl.: 13.8 per Leaf
  # of Individuals per Leaf: Nymphs, 2nd Appl.: 30.5 per Leaf
  # of Individuals per Leaf: Adults, 3rd Appl.: 2.0 per Leaf
  # of Individuals per Leaf: Eggs, 3rd Appl.: 11.0 per Leaf
  # of Individuals per Leaf: Nymphs, 3rd Appl.: 16.8 per Leaf
